# Measurements published in ChEMBL document CHEMBL5226330, “Synthesis of Oxazino[4,3-a]indoles and biological applications” (2021).
# Species on record: Mus musculus
# Test: Antidepressant activity against […] Swiss albino mouse model assessed as […]
# Type: functional
row,SMILES,ED50
1,CNCCC1(C)OCCn2c1c(C)c1ccccc12.Cl (stereo not drawn),0.5 mg/kg
2,Cc1c2n(c3ccccc13)CCOC2(C)CCCN(C)C.Cl (stereo not drawn),2.9 mg/kg
3,Cc1c2n(c3ccccc13)CCOC2(C)CCN(C)C.Cl (stereo not drawn),2 mg/kg
